Reference: ChEMBL document CHEMBL5729144, “1-cyano-pyrrolidine derivatives as DUB inhibitors” (2022)

Molecular target: T1, Ubiquitin carboxyl-terminal hydrolase 30 (Homo sapiens, UniProt Q70CQ3)
T1 sequence (Q70CQ3 whole entry): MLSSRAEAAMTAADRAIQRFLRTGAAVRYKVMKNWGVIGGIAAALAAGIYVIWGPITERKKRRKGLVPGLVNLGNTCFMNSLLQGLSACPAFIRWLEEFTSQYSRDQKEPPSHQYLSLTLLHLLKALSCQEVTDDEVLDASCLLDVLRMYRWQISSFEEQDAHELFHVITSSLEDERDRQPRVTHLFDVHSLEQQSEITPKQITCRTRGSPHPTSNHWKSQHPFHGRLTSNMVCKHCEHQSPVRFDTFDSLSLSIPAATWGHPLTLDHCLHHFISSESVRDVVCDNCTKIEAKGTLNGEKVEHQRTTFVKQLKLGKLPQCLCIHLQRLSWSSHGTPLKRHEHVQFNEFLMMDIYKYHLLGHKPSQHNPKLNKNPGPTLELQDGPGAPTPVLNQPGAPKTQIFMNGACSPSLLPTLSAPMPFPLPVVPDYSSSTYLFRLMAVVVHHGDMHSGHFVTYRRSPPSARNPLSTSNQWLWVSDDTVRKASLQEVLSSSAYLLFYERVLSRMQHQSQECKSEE
Experiment: A typical 8-point dilution series would be 100, 30, 10, 3, 1, 0.3, 0.1, 0.03 μM final. Reactions were performed in duplicate in black 384 well plates (small volume, Greiner 784076) in a final reaction volume of 21 μl. Either 1 μl of 50% DMSO or diluted compound was added to the plate. USP30 was diluted in reaction buffer (40 mM Tris, pH 7.5, 0.005% Tween 20, 0.5 mg/ml BSA, 5 mM beta-mercaptoethanol) to the equivalent of 0.05 μl/well and 10 μl of diluted USP30 was added to the compound. Enzyme and compound were incubated for 30 min at room temp. Reactions were initiated by the addition of 50 nM of TAMRA labelled peptide linked to ubiquitin via an iso-peptide bond as fluorescence polarisation substrate. Reactions were read immediately after addition of substrate and following a 2 h incubation at room temperature. Readings were performed on a Pherastar Plus (BMG Labtech). λ Excitation 540 nm; λ Emission 590 nm.

| IC50 | SMILES |
| --- | --- |
| < 0.1 µM | N#Cc1cccc(-c2cccc(-c3nc(C4CCCN4C#N)no3)c2)c1F (centres undefined) |
| < 0.1 µM | N#Cc1ccc(-c2cccc(-c3nc(C4CCCN4C#N)no3)c2)s1 (centres undefined) |
| < 0.1 µM | N#CN1CCCC1c1noc(-c2cccc(-c3cccc([N+](=O)[O-])c3)c2)n1 (centres undefined) |
| < 0.1 µM | N#Cc1cccc(-c2cc(-c3nc([C@@H]4CCCN4C#N)no3)ccn2)c1 |
